Five compounds from patent publication US20250084079A1, “COMPOSITIONS AND METHODS FOR INHIBITION OF RAS” (TheRas, Inc., priority 2022, published 2025) can be followed below.

The subject of test [1] is pERK in GP2d cells (KRAS G12D). Kind of test: Cell-based pERK HTRF assay in GP2d cell. The conditions noted are these: GP2d, 1 h, 60 min incubation. In a few lines: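 GP2d cells (KRAS G12D) in DMEM/10% FBS were seeded the day before and exposed to compounds for 60 min in 0.25% DMSO. The 9-point curve started at 1 μM with half-log steps. Lysates were read for pERK by HTRF (Eu cryptate/d2 antibodies) after 4–24 h at room temperature, with excitation at 320 nm and emission at 615 nm.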

For test [2], the target named is T1, Avi-KRAS G12V (1-169) GppNHp/RAF1 RBD-3xFLAG (52-151) (Homo sapiens, UniProt P01116, G12V).
T1 construct: 50 nM Avi-KRAS G12V (1-169) GppNHp
Kind of test: RAS-effector PPI HTRF disruption assay, Raf1-GppNHp-KRAS G12V. It counts as biochemical. Put shortly:
(§1)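 Protein complexes pre-mixed in buffer (50 mM Tris pH 7.5, 100 mM NaCl, 5 mM MgCl2, 0.1% BSA, 0.01% Tween, 1 mM TCEP, 10% DMSO): KRAS G12D/Q25A–PI3KCA at 375 nM; KRAS G12D–RAF1 RBD at 100 nM; KRAS G12V and WT–RAF1 RBD at 50 nM. Compounds titrated from 100 μM, 10 points, 3×. IC50 from HTRF signal relative to DMSO.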

Test [3] deals with GDP KRAS G12D (Homo sapiens, UniProt P01116, G12D). Kind of test: SPR binding affinity to GDP KRAS G12D (Biacore S200). The following applies: GDP-loaded KRAS G12D, steady state KD. How it is done:
(§2) The affinity of compounds of the present disclosure to RAS ligands was assessed using surface plasmon resonance (SPR) binding analysis using a Biacore S200 (GE Healthcare Life Sciences) instrument. The SPR binding analysis employed the following reagents and protocols:
(§3) Buffer preparation: To make 0.5 L add required amounts of stocks for: 20 mM Hepes, 150 mM NaCl, 5 mM MgCl2, 1 mM TCEP, 0.05% P20, and 5 μM nucleotide. Adjust pH to 7.4, then bring volume up to 475 mL 1.05×Filter through 0.2 μm cellulose acetate membrane. Remove a volume of buffer as No DMSO Buffer 1.05× and set aside. Add appropriate volume of DMSO to buffer to a final concentration 5% DMSO.
(§4) Chip preparation: Prime 2× with 5% DMSO buffer. Allow system to flow on standby throughout the day.
(§5) Sample preparation: Make a 20× compound solution in 100% DMSO of highest compound concentration to be screened (2 mM for final 100 μM compound). Add appropriate volume of 1.05× buffer without DMSO to give 5% DMSO and mix by pipetting. Centrifuge sample 18,000×g 5 min 25° C. Make appropriate serial dilutions from the highest concentration into 5% DMSO running buffer for the concentrations needed. Prepare 5.8% DMSO and 4.5% DMSO solvent correction solutions using buffer without DMSO. Make two more solvent corrections by mixing 200 μL 4.5% 500 μL 5.8%, and 400 μL 4.5% 300 μL 5.8%
(§6) Capture Avi-taggedprotein: Thaw protein stock on ice, aliquot into single use size and freeze at −80° C. for future use. Dilute protein (avi-KRAS WT, avi-KRAS-G12D, avi-KRAS-G12V, or avi-RhoA) appropriately, to 20 μg/mL to begin in 5% DMSO buffer. Manually inject at 10 μL/min 12 second contact time. Adjust flow and or contact time to achieve desired level of captured protein. When desired level of protein is captured, flow for 10 minutes to stabilize signal.
(§7) General Binding Level Screen Method: Choose LMW screen template in Fragment/LMW subfolder in Binding screen folder. 30 μL/min high performance injection, 60 sec contact and dissociation time, carry over control, extra wash with 50% DMSO for each injection. Fifteen Startup cycles to condition. Control samples before and after compound samples. For GppNHp loaded KRAS, control is 20 μM Raf1 RBD domain. Adjust this sample to final 5% DMSO to match running buffer. This process is performed at a temperature of 25° C. using a single chip per experiment.
(§8) Binding affinity determination: Compounds selected from the binding level screen are evaluated in a dose response to determine the binding affinity (KD). Serial dilutions of compounds are prepared and injected over the sensor chip using a flow rate of 30 μL/min with a 60 second contact and dissociation time. After double referencing of the sensorgrams the total level of compound binding at each concentration is calculated. The steady state binding affinity is calculated with a Langmuir binding model assuming a 1:1 interaction with a constrained Rmax using the BIAevaluation software.

Test [4] concerns the target T2, Avi-KRAS G12D/Q25A (1-169) GppNHp/3xFLAG-PI3KCA (157-299) (Homo sapiens, UniProt P01116, G12D/Q25A).
T2 construct: 375 nM Avi-KRAS G12D/Q25A (1-169) GppNHp
Kind of test: RAS-effector PPI HTRF disruption assay, PI3KCA-GppNHp-KRAS G12D/Q25A. It counts as biochemical. Put shortly: as §1
Background: Time-resolved FRET reads energy transfer from a long-lived donor to a nearby acceptor.

The target in test [5] is T3, Avi-KRAS G12D (1-169) GppNHp/RAF1 RBD-3xFLAG (52-151) (Homo sapiens, UniProt P01116, G12D).
T3 construct: 100 nM Avi-KRAS G12D (1-169) GppNHp
Kind of test: RAS-effector PPI HTRF disruption assay, Raf1-GppNHp-KRAS G12D. It is filed as biochemical. In a few lines: as §1

In test [6] the target is GppNHp KRAS G12D (Homo sapiens, UniProt P01116, G12D). Kind of test: SPR binding affinity to GppNHp KRAS G12D (Biacore S200). The following applies: GppNHp-loaded KRAS G12D, steady state KD. How it is done:
as §2, §3, §4, §5, §6, §7, §8
For orientation: In SPR one partner is held on a chip, and binding of the other changes the refractive index at the surface.

Test [7] has as its target T4, Avi-KRAS WT (1-169) GppNHp/RAF1 RBD-3xFLAG (52-151) (Homo sapiens, UniProt P01116).
T4 construct: 50 nM Avi-KRAS WT (1-169) GppNHp
Kind of test: RAS-effector PPI HTRF disruption assay, Raf1-GppNHp-KRAS WT. It is filed as biochemical. Put shortly:
as §1

A value given as a limit tells only on which side of the number the result lay.

For orientation: IC50 means the concentration needed to halve the response being measured. Broadly, the Kd is the concentration at which binding is half-saturated. High values mean lower affinity, low ones higher affinity.

T3 sequence (P01116 1-169 isoform P01116-2 G12D): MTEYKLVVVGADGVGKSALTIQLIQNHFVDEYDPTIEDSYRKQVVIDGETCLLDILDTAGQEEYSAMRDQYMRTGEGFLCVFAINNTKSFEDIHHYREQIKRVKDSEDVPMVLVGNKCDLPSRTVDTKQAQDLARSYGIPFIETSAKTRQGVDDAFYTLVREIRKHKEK
T4 sequence (P01116 1-169 isoform P01116-2): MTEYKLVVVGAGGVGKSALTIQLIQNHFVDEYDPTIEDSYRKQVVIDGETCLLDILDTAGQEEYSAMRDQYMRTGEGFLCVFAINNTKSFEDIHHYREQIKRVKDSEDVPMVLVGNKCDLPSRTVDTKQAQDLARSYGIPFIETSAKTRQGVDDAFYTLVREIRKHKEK
T1 sequence (P01116 1-169 isoform P01116-2 G12V): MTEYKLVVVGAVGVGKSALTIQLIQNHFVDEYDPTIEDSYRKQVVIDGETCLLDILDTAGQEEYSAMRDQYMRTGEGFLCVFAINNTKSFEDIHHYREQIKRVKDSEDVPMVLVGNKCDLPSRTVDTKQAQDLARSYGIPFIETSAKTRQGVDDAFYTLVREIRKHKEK
T2 sequence (P01116 1-169 isoform P01116-2 G12D/Q25A): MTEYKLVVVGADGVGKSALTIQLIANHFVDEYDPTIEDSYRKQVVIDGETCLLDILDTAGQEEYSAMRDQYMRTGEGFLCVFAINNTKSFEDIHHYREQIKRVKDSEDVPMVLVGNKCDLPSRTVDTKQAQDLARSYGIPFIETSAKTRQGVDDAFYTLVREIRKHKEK
Chain of GDP KRAS G12D (P01116 1-188 isoform P01116-2 G12D): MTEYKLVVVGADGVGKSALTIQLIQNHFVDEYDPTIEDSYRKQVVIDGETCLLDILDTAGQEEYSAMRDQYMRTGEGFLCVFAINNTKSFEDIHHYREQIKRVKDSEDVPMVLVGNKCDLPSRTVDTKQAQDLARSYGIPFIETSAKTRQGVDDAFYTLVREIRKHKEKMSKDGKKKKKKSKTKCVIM
Chain of GppNHp KRAS G12D (P01116 1-188 isoform P01116-2 G12D): as above

Turning to `Nc1nc2c(-c3c(C(F)(F)F)cc4c(O[C@H]5CNC[C@@H]5F)nc(OC[C@@]56CCCN5C[C@H](F)C6)nc4c3F)ccc(F)c2s1` (atropisomer, axis not shown) [Compound 17], the IC50 was in the range of 100 to 1000 nM in test [1]; 1000 to 10000 nM in test [2]; 100 to 1000 nM in test [4]; 100 to 1000 nM in test [5]; 1000 to 10000 nM in test [7]. In addition, the figures for the equilibrium dissociation constant (Kd) in test [3] and in test [6] were not above 100 nM and 100 to 1000 nM, respectively.
With `C[C@@H]1C[C@@H](Oc2nc(OC[C@@]34CCCN3C[C@H](F)C4)nc3c(F)c(-c4ccc(F)c5sc(N)nc45)c(C(F)(F)F)cc23)CN1` (atropisomer, axis not shown) [Compound 20], the IC50 was not above 100 nM in test [1]; 1000 to 10000 nM in test [2]; 1000 to 10000 nM in test [4]; 100 to 1000 nM in test [5]; 1000 to 10000 nM in test [7]. Moreover, the Kd in test [3] is not above 100 nM; in test [6], 100 to 1000 nM.
Take `C[C@@H]1C[C@@H](Oc2nc(OC[C@@]34CCCN3C[C@H](F)C4)nc3c(F)c(-c4ccc(F)c5sc(N)nc45)c(C(F)(F)F)cc23)CN1` (atropisomer, axis not shown) [Compound 21]: the concentration for half-maximal inhibition (IC50) in test [2], in test [4], in test [5] and in test [7] was more than 10000 nM throughout. The Kd in test [3] is 1000 to 10000 nM; in test [6], more than 10000 nM.
Turning to `C[C@H]1NCCC1Oc1nc(OC[C@@]23CCCN2C[C@H](F)C3)nc2c(F)c(-c3ccc(F)c4sc(N)nc34)c(C(F)(F)F)cc12` (stereo partly shown) [Compound 19], the IC50 was not above 100 nM in test [1]; 1000 to 10000 nM in test [2]; 100 to 1000 nM in test [4]; 100 to 1000 nM in test [5]; 100 to 1000 nM in test [7]. Also, the Kd is not above 100 nM in test [3] and 100 to 1000 nM in test [6].
`Nc1nc2c(-c3c(C(F)(F)F)cc4c(OC5CC6CC[C@H](C5)N6)nc(OCC56CCCN5CCC6)nc4c3F)ccc(F)c2s1` (stereo partly shown) [Compound 26]: the IC50 is more than 1000 nM in test [1]; 1000 to 10000 nM in test [2]; 100 to 1000 nM in test [4]; not above 100 nM in test [5]; not above 100 nM in test [7]. The Kd in test [3] and in test [6] was not above 100 nM each time.
